Measurements reported in patent publication US20260028365A1 (BIOGEN MA INC., priority 2022, published 2026).
Like-named read-outs stand apart in the source and are kept apart here.

Tests used:
JH2 domain of human Tyk2 = JH2 domain of human Tyk2 (Homo sapiens (Human), UniProt P29597); experiment: JH2 Biochemical Assay (TR-FRET probe displacement); type: binding
Tyk2 = Tyk2 (Homo sapiens (Human), UniProt P29597); experiment: pSTAT4 Cell Assay (MSD, NK92 cells); type: cell-based
[1] = TR-FRET probe displacement, JH2 domain of human Tyk2
[2] = TR-FRET probe displacement, JH2 domain
[3] = JH2 domain of human Tyk2, TR-FRET probe displacement

Sequence of JH2 domain of human Tyk2 (P29597 575-876): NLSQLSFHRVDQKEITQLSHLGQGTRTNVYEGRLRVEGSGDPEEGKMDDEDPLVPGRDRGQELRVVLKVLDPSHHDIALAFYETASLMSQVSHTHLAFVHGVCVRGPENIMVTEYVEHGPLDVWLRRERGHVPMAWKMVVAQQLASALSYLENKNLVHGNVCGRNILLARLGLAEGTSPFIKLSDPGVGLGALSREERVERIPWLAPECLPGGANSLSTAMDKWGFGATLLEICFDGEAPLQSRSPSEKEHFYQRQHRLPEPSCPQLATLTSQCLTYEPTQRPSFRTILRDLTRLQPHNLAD
Sequence of Tyk2 (P29597 whole entry, the tested form may be a part): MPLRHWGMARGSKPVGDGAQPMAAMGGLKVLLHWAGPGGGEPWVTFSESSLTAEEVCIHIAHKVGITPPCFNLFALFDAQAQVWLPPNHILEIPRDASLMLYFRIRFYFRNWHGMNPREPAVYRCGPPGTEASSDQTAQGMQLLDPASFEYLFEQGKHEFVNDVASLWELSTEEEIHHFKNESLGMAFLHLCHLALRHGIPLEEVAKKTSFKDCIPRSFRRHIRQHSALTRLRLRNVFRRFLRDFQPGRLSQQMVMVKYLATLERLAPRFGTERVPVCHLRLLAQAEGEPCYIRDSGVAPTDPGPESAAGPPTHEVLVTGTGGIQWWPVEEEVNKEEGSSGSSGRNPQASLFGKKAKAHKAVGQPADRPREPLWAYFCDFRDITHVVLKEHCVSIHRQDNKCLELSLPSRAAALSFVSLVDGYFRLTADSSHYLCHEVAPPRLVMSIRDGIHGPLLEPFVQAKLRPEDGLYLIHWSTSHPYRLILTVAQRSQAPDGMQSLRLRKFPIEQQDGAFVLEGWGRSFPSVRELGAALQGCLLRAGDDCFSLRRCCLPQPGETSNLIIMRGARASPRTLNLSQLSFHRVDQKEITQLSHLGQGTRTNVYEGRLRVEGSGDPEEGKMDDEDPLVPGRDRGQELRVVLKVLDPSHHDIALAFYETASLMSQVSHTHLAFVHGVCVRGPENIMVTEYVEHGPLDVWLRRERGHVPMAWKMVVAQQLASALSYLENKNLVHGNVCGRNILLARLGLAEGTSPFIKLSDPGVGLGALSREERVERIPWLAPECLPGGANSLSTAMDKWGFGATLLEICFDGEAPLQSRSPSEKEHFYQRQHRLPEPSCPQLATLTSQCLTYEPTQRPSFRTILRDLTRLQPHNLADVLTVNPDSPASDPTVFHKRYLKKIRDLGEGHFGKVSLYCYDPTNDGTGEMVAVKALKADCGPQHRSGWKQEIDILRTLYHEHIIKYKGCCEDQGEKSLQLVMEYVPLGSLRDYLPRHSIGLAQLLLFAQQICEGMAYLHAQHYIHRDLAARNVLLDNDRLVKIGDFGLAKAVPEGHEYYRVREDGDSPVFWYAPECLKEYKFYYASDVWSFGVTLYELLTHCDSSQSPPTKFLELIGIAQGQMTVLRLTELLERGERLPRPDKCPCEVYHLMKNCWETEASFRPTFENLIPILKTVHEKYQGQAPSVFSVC

| Compound | IC50 (JH2 domain of human Tyk2; [1]) [nM] | IC50 (Tyk2; MSD) [nM] | IC50 (JH2 domain of human Tyk2; [2]) [nM] | IC50 (Tyk2) [nM] | IC50 (JH2 domain of human Tyk2; [3]) [nM] |
| --- | --- | --- | --- | --- | --- |
| CC(=O)Nc1cc(Nc2cc(C)nc(C(C)(F)F)n2)c(Oc2ccnc(C(F)(F)F)n2)cn1 [Example 359, N-(4-((2-(1,1-difluoroethyl)-6-methylpyrimidin-4-yl)amino)-5-((2-(trifluoromethyl)pyrimidin-4-yl)oxy)pyridin-2-yl)acetamide] | ≥ 1000 | ≥ 1000 |  |  |  |
| CC(=O)Nc1cc(Nc2ccnc(C(C)(F)F)n2)c(-c2ccc(C(C)(C)O)cn2)cn1 [Example 852, N-(4′-((2-(1,1-difluoroethyl)pyrimidin-4-yl)amino)-5-(2-hydroxypropan-2-yl)-[2,3′-bipyridin]-6′-yl)acetamide] |  |  | ≤ 10 | ≤ 10 |  |
| COc1cnc(NC(C)=O)cc1Nc1cc(C)nc(C2CCOC2)n1 (centres unmarked) [Example 451, N-(5-methoxy-4-((6-methyl-2-(tetrahydrofuran-3-yl)pyrimidin-4-yl)amino)pyridin-2-yl)acetamide] |  | ≥ 1000 |  |  | 10 to 100 |
| COCCOc1cnc(NC(C)=O)cc1Nc1cncc(C(C)(C)F)n1 [Example 439, N-(4-((6-(2-fluoropropan-2-yl)pyrazin-2-yl)amino)-5-(2-methoxyethoxy)pyridin-2-yl)acetamide] |  | 10 to 100 |  |  | ≤ 10 |
| CCOc1cnc(NC(C)=O)cc1Nc1cc(Cl)nc(C(C)(F)F)n1 [Example 372, N-(4-((6-chloro-2-(1,1-difluoroethyl)pyrimidin-4-yl)amino)-5-ethoxypyridin-2-yl)acetamide] |  | 10 to 100 |  |  | ≤ 10 |
| CC(=O)Nc1cc(Nc2cc(C(C)C)nc(C(C)(F)F)n2)c(-c2ncc(F)cn2)cn1 [Example 184, N-(4-((2-(1,1-difluoroethyl)-6-isopropylpyrimidin-4-yl)amino)-5-(5-fluoropyrimidin-2-yl)pyridin-2-yl)acetamide] | ≤ 10 | 10 to 100 |  |  |  |
| CCc1cc(Nc2cc(NC(C)=O)ncc2-c2ccc(C#N)cn2)nc(C(C)(F)F)n1 [Example 583, N-(5-cyanO4′-((2-(1,1-difluoroethyl)-6-ethylpyrimidin-4-yl)amino)-[2,3′-bipyridin]-6′-yl)acetamide] |  | ≤ 10 |  |  | ≤ 10 |
| CC(=O)Nc1cc(Nc2ccnc(C(C)(F)F)n2)c(OC2CC2)cn1 [Example 38, N-(5-cyclopropoxy-4-((2-(1,1-difluoroethyl)pyrimidin-4-yl)amino)pyridin-2-yl)acetamide] | ≤ 10 | 100 to 1000 |  |  |  |
| CCOc1cnc(NC(C)=O)cc1Nc1cc(-c2cnn(C(=O)OC(C)(C)C)c2)nc(C(C)(F)F)n1 [Example 307, tert-butyl 4-(6-((2-acetamido-5-ethoxypyridin-4-yl)amino)-2-(1,1-difluoroethyl)pyrimidin-4-yl)-1H-pyrazole-1-carboxylate] | ≤ 10 | 10 to 100 |  |  |  |
| CC(=O)Nc1cc(Nc2cc(C)nc(C(C)(F)F)n2)c(OCc2ccsn2)cn1 [Example 323, N-(4-((2-(1,1-difluoroethyl)-6-methylpyrimidin-4-yl)amino)-5-(isothiazol-3-ylmethoxy)pyridin-2-yl)acetamide] | ≤ 10 | ≤ 10 |  |  |  |
| COc1cc(-c2cnc(NC(C)=O)cc2Nc2cc(C)nc(C(C)(C)F)n2)ncn1 [Example 196, N-(4-((2-(2-fluoropropan-2-yl)-6-methylpyrimidin-4-yl)amino)-5-(6-methoxypyrimidin-4-yl)pyridin-2-yl)acetamide] | ≤ 10 | 10 to 100 |  |  |  |
| COc1nc(-c2cnc(NC(C)=O)cc2Nc2ccnc(C(C)(F)F)n2)cs1 [Example 712, N-(4-((2-(1,1-difluoroethyl)pyrimidin-4-yl)amino)-5-(2-methoxythiazol-4-yl)pyridin-2-yl)acetamide] |  | ≤ 10 |  |  | ≤ 10 |
| COCCc1cc(-c2cnc(NC(C)=O)cc2Nc2cc(C)nc(C(C)(F)F)n2)ncn1 [Example 745, N-(4-((2-(1,1-difluoroethyl)-6-methylpyrimidin-4-yl)amino)-5-(6-(2-methoxyethyl)pyrimidin-4-yl)pyridin-2-yl)acetamide] |  | 10 to 100 |  |  | ≤ 10 |
| CC(=O)Nc1cc(Nc2ccnc(C(C)(F)F)n2)c(-c2nnc(N3CCOCC3)s2)cn1 [Example 255, N-(4-((2-(1,1-difluoroethyl)pyrimidin-4-yl)amino)-5-(5-morpholino-1,3,4-thiadiazol-2-yl)pyridin-2-yl)acetamide] | ≤ 10 | ≤ 10 |  |  |  |
| CC(=O)Nc1cc(Nc2cc(C)nc(C(C)(F)F)n2)c(OCC2(C)CCOC2)cn1 (centres unmarked) [Example 431, N-(4-((2-(1,1-difluoroethyl)-6-methylpyrimidin-4-yl)amino)-5-((3-methyltetrahydrofuran-3-yl)methoxy)pyridin-2-yl)acetamide] |  | 100 to 1000 |  |  | ≤ 10 |
| CCOc1cnc(NC(C)=O)cc1Nc1cc(C(C)C)nc(C(C)(F)F)n1 [Example 51, N-(4-((2-(1,1-difluoroethyl)-6-isopropylpyrimidin-4-yl)amino)-5-ethoxypyridin-2-yl)acetamide] | ≤ 10 | 10 to 100 |  |  |  |

| Compound | IC50 (JH2 domain of human Tyk2; [1]) [nM] | IC50 (Tyk2; MSD) [nM] | IC50 (JH2 domain of human Tyk2; [2]) [nM] | IC50 (Tyk2) [nM] | IC50 (JH2 domain of human Tyk2; [3]) [nM] |
| --- | --- | --- | --- | --- | --- |
| CC(=O)Nc1cc(Nc2cc(C)nc(C(C)(F)F)n2)c(OCC(F)C(C)C)cn1 (centres unmarked) [Example 429, N-(4-((2-(1,1-difluoroethyl)-6-methylpyrimidin-4-yl)amino)-5-(2-fluoro-3-methylbutoxy)pyridin-2-yl)acetamide] |  | 10 to 100 |  |  | ≤ 10 |
| CCOc1cnc(NC(C)=O)cc1Nc1cc(-c2ccc(OC)nc2)nc(C(C)(F)F)n1 [Example 369, N-(4-((2-(1,1-difluoroethyl)-6-(6-methoxypyridin-3-yl)pyrimidin-4-yl)amino)-5-ethoxypyridin-2-yl)acetamide] | ≤ 10 | 10 to 100 |  |  |  |
| CC(=O)Nc1cc(Nc2cc(C)nc(C(C)(F)F)n2)c(-c2ccccn2)cn1 [Example 591, N-(4′-((2-(1,1-difluoroethyl)-6-methylpyrimidin-4-yl)amino)-[2,3′-bipyridin]-6′-yl)acetamide] |  | ≤ 10 |  |  | ≤ 10 |
| CC(=O)Nc1cc(Nc2cc(C)nc(C(C)(F)F)n2)c(OCc2cc(C)on2)cn1 [Example 497, N-(4-((2-(1,1-difluoroethyl)-6-methylpyrimidin-4-yl)amino)-5-((5-methylisoxazol-3-yl)methoxy)pyridin-2-yl)acetamide] |  | 10 to 100 |  |  | ≤ 10 |
| CCOc1cnc(NC(C)=O)cc1Nc1cc(O[C@H]2C[C@H](OC)C2)nc(C)n1 [Example 519, N-(5-ethoxy-4-((6-((1r,3r)-3-methoxycyclobutoxy)-2-methylpyrimidin-4-yl)amino)pyridin-2-yl)acetamide] |  | 100 to 1000 |  |  | 100 to 1000 |
| CC(=O)Nc1cc(Nc2cc(C)nc(C(C)(F)F)n2)c(-c2cc3n(n2)CCNC3)cn1 [Example 282, N-(4-((2-(1,1-difluoroethyl)-6-methylpyrimidin-4-yl)amino)-5-(4,5,6,7-tetrahydropyrazolo[1,5-a]pyrazin-2-yl)pyridin-2-yl)acetamide] | ≤ 10 | ≤ 10 |  |  |  |
| CCn1cc(-c2cc(Nc3cc(NC(C)=O)ncc3OC)nc(C(C)(F)F)n2)cn1 [Example 97, N-(4-((2-(1,1-difluoroethyl)-6-(1-ethyl-1H-pyrazol-4-yl)pyrimidin-4-yl)amino)-5-methoxypyridin-2-yl)acetamide] | 10 to 100 | 10 to 100 |  |  |  |
| CC(=O)Nc1cc(Nc2cc(C)nc(C(C)(F)F)n2)c(-c2ncc(Cl)cn2)cn1 [Example 669, N-(5-(5-chloropyrimidin-2-yl)-4-((2-(1,1-difluoroethyl)-6-methylpyrimidin-4-yl)amino)pyridin-2-yl)acetamide] |  | 10 to 100 |  |  | ≤ 10 |
| COc1ccc(-c2cnc(NC(C)=O)cc2Nc2cc(C)nc(C34COC(C3)C4)n2)nn1 [Example 749, N-(4-((2-(2-oxabicyclo[2.1.1]hexan-4-yl)-6-methylpyrimidin-4-yl)amino)-5-(6-methoxypyridazin-3-yl)pyridin-2-yl)acetamide] |  |  | ≤ 10 | 10 to 100 |  |
| CC(=O)Nc1cc(Nc2cc(C)nc(C(C)(F)F)n2)c(-c2cc(C#N)ccn2)cn1 [Example 631, N-(4-cyanO4′-((2-(1,1-difluoroethyl)-6-methylpyrimidin-4-yl)amino)-[2,3′-bipyridin]-6′-yl)acetamide] |  | 10 to 100 |  |  | ≤ 10 |
| CC(=O)Nc1cc(Nc2cc(C)nc(C(C)(F)F)n2)c(-c2ccc(COC(F)F)cn2)cn1 [Example 524, N-(4′-((2-(1,1-difluoroethyl)-6-methylpyrimidin-4-yl)amino)-5-((difluoromethoxy)methyl)-[2,3′-bipyridin]-6′-yl)acetamide] |  | ≤ 10 |  |  | ≤ 10 |
| CC(=O)Nc1cc(Nc2cc(C)nc(C(C)(F)F)n2)c(OCc2cnn(C)c2C)cn1 [Example 138, N-(4-((2-(1,1-difluoroethyl)-6-methylpyrimidin-4-yl)amino)-5-((1,5-dimethyl-1H-pyrazol-4-yl)methoxy)pyridin-2-yl)acetamide] | 100 to 1000 | ≥ 1000 |  |  |  |
| CCc1cc(Nc2cc(NC(C)=O)ncc2-c2cnc(CN(C)C)cn2)nc(C(C)(F)F)n1 [Example 895, N-(4-((2-(1,1-difluoroethyl)-6-ethylpyrimidin-4-yl)amino)-5-(5-((dimethylamino)methyl)pyrazin-2-yl)pyridin-2-yl)acetamide] |  |  | ≤ 10 | ≤ 10 |  |
| COc1cnc(NC(C)=O)cc1Nc1cc(-c2cnn(C3CC3)c2)nc(C(C)(F)F)n1 [Example 376, N-(4-((6-(1-cyclopropyl-1H-pyrazol-4-yl)-2-(1,1-difluoroethyl)pyrimidin-4-yl)amino)-5-methoxypyridin-2-yl)acetamide] |  | 10 to 100 |  |  | 10 to 100 |
| CC(=O)Nc1cc(Nc2cc(C)nc(C(C)(F)F)n2)c([C@@H]2C[C@@H]2C#N)cn1 (relative stereo) [Example 810, rel-N-(5-((1R,2S)-2-cyanocyclopropyl)-4-((2-(1,1-difluoroethyl)-6-methylpyrimidin-4-yl)amino)pyridin-2-yl)acetamide] |  |  | 10 to 100 | ≥ 1000 |  |
